Results as given in patent US7592457B2 (Korea Research Institute of Chemical Technology, priority 2004, dated 2009).
Read-outs that look alike come from different tables or passages of the source.

Assays:
[1] = biological target: T1, hD2L receptor (Homo sapiens, UniProt P14416); experiment: Radioligand binding, dopamine D2 ([3H]spiperone); conditions: read-out: Binding affinity (Inhibition rate % at 10 μM) D2
T1 construct: purchased BioSignal Packard Inc., Montreal, Canada

[2] = biological target: T2, 5-HT1a (Homo sapiens, UniProt P08908); experiment: Radioligand binding, 5-HT1a ([3H]8-OH-DPAT); conditions: read-out: Binding affinity (Inhibition rate % at 10 μM) 5HT1a
T2 construct: purchased Euroscreen/BioSignal Packard Inc
T2 sequence (P08908 1-422): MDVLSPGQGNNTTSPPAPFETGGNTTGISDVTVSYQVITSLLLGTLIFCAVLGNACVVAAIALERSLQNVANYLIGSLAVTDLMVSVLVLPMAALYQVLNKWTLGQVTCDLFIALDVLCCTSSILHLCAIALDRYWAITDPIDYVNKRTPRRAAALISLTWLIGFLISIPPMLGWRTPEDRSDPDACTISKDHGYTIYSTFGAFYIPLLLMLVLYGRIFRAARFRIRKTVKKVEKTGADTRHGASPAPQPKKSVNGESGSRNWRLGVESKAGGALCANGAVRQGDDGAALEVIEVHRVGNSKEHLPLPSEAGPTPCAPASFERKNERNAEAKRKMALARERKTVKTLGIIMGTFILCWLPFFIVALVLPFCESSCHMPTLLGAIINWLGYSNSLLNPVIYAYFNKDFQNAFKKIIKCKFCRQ
Experimental: (§1) Radioligand bindings were performed according to the test method provided by the supplier of receptor membrane (Euroscreen/BioSignal Packard Inc.).

[3] = biological target: T3, 5-HT2a (Homo sapiens, UniProt P28223); experiment: Radioligand binding, 5-HT2a ([3H]Ketanserin); conditions: read-out: Binding affinity (Inhibition rate % at 10 μM) 5HT2a
T3 construct: purchased Euroscreen/BioSignal Packard Inc
T3 sequence (P28223 whole entry): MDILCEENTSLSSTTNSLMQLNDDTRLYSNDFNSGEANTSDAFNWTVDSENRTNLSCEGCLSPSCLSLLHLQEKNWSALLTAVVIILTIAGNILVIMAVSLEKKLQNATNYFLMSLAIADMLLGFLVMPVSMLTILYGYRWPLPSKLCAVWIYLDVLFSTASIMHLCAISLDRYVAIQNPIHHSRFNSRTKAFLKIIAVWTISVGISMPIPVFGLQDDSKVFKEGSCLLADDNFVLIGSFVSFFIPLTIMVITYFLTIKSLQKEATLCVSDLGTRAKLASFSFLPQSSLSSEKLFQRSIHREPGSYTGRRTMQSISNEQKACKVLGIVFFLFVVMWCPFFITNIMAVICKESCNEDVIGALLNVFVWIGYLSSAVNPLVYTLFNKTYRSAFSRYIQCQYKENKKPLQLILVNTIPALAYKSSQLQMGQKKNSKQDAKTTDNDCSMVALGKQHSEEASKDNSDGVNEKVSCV
Experimental: as §1

[4] = biological target: T4, hD4.2 receptor (Homo sapiens, UniProt P21917, DEL265-296); experiment: Radioligand binding, dopamine D4 ([3H]YM-09151-2); conditions: read-out: Binding affinity (Inhibition rate % at 10 μM) D4
T4 construct: purchased BioSignal Packard Inc., Montreal, Canada
T4 sequence (P21917 with tags, fused parts or gaps DEL265-296): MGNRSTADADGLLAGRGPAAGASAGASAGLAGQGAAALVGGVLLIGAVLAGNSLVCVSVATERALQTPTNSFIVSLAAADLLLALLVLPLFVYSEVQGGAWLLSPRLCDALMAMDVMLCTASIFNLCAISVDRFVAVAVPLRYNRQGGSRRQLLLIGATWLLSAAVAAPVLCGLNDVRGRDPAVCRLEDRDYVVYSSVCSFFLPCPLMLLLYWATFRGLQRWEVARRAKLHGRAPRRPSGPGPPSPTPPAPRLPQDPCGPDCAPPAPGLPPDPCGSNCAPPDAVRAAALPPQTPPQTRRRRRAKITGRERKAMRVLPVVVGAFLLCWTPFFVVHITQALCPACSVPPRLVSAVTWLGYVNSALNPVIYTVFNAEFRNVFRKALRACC

[5] = biological target: T5, 5-HT7 (Homo sapiens, UniProt P34969); experiment: Radioligand binding, 5-HT7 ([3H]LSD); conditions: read-out: Binding affinity (Inhibition rate % at 10 μM) 5HT7
T5 construct: purchased Euroscreen/BioSignal Packard Inc
T5 sequence (P34969 whole entry): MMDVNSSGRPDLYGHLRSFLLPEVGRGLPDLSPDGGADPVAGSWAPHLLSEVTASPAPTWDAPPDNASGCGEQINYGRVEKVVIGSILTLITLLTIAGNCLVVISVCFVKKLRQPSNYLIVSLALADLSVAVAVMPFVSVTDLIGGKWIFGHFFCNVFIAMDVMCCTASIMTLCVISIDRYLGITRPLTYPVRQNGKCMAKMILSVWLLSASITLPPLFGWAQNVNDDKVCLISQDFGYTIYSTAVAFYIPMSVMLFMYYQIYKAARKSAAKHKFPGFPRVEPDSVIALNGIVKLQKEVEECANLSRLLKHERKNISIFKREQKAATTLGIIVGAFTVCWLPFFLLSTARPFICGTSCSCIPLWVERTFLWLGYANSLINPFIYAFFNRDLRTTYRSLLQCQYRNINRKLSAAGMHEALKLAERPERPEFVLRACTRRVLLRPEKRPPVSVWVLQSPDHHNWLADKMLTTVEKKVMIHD
Experimental: as §1

[6] = biological target: T6, 5-HT2c (Homo sapiens, UniProt P28335); experiment: Radioligand binding, 5-HT2c ([3H]Mesulergine); conditions: read-out: Binding affinity (Inhibition rate % at 10 μM) 5HT2c
T6 construct: purchased Euroscreen/BioSignal Packard Inc
T6 sequence (P28335 33-458): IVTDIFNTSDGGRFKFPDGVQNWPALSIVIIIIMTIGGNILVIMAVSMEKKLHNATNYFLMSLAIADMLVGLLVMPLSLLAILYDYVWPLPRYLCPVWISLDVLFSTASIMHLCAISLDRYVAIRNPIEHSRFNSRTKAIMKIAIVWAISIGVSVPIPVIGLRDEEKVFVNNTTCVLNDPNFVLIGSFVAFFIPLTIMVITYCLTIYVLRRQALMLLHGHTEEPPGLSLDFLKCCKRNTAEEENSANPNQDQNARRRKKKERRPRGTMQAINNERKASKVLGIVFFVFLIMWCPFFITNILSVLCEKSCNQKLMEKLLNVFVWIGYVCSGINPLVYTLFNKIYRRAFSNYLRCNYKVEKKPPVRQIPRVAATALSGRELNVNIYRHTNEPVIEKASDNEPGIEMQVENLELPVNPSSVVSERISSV
Experimental: as §1

[7] = biological target: T7, human serotonin 5-HT6 receptor (Homo sapiens, UniProt P50406); experiment: [3H]LSD binding at cloned 5-HT6 receptors; conditions: for inhibition at 10 µM: read-out: Binding affinity (Inhibition rate % at 10 μM) 5HT6
T7 construct: made in house; host or cells: Sf21 insect cells (pBacPAK8 baculovirus vector)
T7 sequence (P50406 whole entry): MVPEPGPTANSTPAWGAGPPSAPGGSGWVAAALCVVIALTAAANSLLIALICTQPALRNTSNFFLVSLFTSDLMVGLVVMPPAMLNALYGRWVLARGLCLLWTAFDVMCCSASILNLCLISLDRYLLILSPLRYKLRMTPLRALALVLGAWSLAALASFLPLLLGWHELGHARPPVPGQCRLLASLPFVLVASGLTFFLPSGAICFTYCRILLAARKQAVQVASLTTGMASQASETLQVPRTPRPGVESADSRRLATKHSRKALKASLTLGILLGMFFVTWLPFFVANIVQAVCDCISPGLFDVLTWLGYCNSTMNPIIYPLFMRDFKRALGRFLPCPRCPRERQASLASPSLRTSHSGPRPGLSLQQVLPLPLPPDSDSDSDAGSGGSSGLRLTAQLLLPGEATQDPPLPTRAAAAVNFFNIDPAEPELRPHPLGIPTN

[8] = biological target: T8, hD3 receptor (Homo sapiens, UniProt P35462); experiment: Radioligand binding, dopamine D3 ([3H]spiperone); conditions: read-out: Binding affinity (Inhibition rate % at 10 μM) D3
T8 construct: purchased BioSignal Packard Inc., Montreal, Canada
T8 sequence (P35462 whole entry): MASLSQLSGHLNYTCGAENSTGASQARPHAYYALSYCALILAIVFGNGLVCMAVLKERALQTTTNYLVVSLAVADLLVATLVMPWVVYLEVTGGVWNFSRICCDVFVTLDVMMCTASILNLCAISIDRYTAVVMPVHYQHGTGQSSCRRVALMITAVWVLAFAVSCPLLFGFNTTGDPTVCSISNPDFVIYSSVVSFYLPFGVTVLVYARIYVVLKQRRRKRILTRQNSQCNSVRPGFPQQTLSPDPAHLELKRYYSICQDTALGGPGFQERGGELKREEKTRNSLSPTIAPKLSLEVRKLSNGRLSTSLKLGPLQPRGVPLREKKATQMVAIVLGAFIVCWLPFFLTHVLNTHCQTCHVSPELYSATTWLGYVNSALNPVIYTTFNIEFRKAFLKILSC

[9] = biological target: D1 (Homo sapiens, UniProt P21728); experiment: Radioligand binding for selectivity, D1; conditions: read-out: Binding affinity (Inhibition rate % at 10 μM) D1
Chain of D1 (P21728 whole entry): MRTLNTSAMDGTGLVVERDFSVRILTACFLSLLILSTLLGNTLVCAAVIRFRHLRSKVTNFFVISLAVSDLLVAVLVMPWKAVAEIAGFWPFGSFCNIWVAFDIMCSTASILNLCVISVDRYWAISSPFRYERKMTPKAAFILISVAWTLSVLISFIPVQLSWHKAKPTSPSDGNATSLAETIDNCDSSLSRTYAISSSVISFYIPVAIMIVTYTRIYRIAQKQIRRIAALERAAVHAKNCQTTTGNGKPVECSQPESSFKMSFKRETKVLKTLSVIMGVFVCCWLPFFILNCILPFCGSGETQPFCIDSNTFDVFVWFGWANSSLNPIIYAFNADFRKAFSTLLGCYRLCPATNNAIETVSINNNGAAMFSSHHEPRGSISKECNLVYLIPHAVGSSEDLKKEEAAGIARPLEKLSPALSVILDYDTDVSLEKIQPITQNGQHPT

[10] = [3H]LSD 1.87 nM, cloned receptor membranes, 37° C., 60 min, read-out: IC50

T1 sequence (P14416 whole entry): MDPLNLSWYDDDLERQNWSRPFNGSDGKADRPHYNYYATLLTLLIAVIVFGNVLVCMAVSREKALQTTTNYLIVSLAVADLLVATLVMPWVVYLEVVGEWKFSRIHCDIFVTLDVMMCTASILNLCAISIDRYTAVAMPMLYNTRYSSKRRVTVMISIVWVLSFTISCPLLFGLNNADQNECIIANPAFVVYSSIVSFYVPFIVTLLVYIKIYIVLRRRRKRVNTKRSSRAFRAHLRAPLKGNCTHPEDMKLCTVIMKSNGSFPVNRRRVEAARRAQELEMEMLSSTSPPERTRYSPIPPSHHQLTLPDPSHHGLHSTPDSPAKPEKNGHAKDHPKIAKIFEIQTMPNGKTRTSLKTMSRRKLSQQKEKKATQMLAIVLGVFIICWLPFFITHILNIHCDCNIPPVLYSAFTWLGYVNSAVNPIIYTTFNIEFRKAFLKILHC

SMILES | inhibition at 10 µM [1] | melting point | inhibition at 10 µM [2] | inhibition at 10 µM [3] | inhibition at 10 µM [4] | inhibition at 10 µM [5] | inhibition at 10 µM [6] | IC50 [7, 10] | inhibition at 10 µM [7] | inhibition at 10 µM [8] | inhibition at 10 µM [9] | IC50 [7] | 5-HT6 affinity compared with known selective antagonists ([7]; in words)
CC1(c2ccc(OCc3ccccc3)c(Br)c2)C(=O)Nc2cc(Cl)cc(Cl)c2C1=O (stereo not drawn) [Example 23, 3-(4-benzyloxy-3-bromo-phenyl)-5,7-dichloro-3-methyl-1H-quinoline-2,4-dione] | 9.6% | 189 to 190 °C | 64.9% | 26.4% | 0.7% | 27.4% | 21.9% | 1.26 µM | 70.6% | 32.5% | 16.8% | – | –
CC1(c2ccc(O)c(Br)c2)C(=O)Nc2cc(Cl)cc(Cl)c2C1=O (stereo not drawn) [Example 24, 3-(3-bromo-4-hydroxy-phenyl)-5,7-dichloro-3-methyl-1H-quinoline-2,4-dione] | 5% | 228 to 229 °C | 50.4% | 11.5% | 0% | 5.5% | 22.8% | 0.126 µM | 71% | 16.6% | 13% | – | –
C[C@H](NC(=O)Oc1ccc(C2(C)C(=O)Nc3cc(Cl)cc(Cl)c3C2=O)cc1)c1ccccc1 (stereo partly drawn) [Example 25] | 8.4% | 110 to 115 °C | 35.9% | 16.7% | 0% | 30.6% | 4% | – | 69.8% | 10.2% | 54.1% | 0.816 µM | –
C[C@H](NC(=O)Oc1cccc(C2(C)C(=O)Nc3cc(Cl)cc(Cl)c3C2=O)c1)c1ccccc1 (stereo partly drawn) [Example 26] | 26.5% | 91 to 94 °C | 0% | 38.1% | 0.5% | 12.7% | 9.1% | – | 70% | 14.8% | 50.5% | 0.98 µM | –
COc1cc(C2(C)C(=O)Nc3ccccc3C2=O)ccc1O (stereo not drawn) [Example 31, 3-(4-hydroxy-3-methoxy-phenyl)-3-methyl-1H-quinoline-2,4-dione] | 9.2% | 168 to 169 °C | 31.2% | 43.5% | 0% | 16.4% | 10.2% | 0.801 µM | 70.6% | 9.8% | 37.1% | – | –
CC1(c2ccc(O)c(O)c2)C(=O)Nc2ccccc2C1=O (stereo not drawn) [Example 32, 3-(3,4-dihydroxy-phenyl)-3-methyl-1H-quinoline-2,4-dione] | 16% | 259 to 261 °C | 13.5% | 26.9% | 0% | 20.1% | 31.9% | 0.769 µM | 71% | 12.6% | 39% | – | –
COc1ccc(C2(C)C(=O)Nc3cc(OC)cc(Cl)c3C2=O)cc1 (stereo not drawn) [Example 35, 5-chloro-7-methoxy-3-(4-methoxy-phenyl)-3-methyl-1H-quinoline-2,4-dione] | 5.1% | 222 to 224 °C | 52.3% | 20.7% | 1.7% | 22.4% | 16.4% | 1.36 µM | 69.1% | 6.4% | 43.1% | – | –
CC1(c2ccc([N+](=O)[O-])cc2)C(=O)Nc2cc(Cl)ccc2C1=O (stereo not drawn) [Example 37, 7-chloro-3-methyl-3-(4-nitro-phenyl)-1H-quinoline-2,4-dione] | 8.3% | 209 to 210 °C | 10.4% | 49.2% | 0% | 21% | 1.4% | 1 µM | 73.3% | 10.5% | 49.2% | – | –
CC1(c2ccc(N)cc2)C(=O)Nc2cc(Cl)ccc2C1=O (stereo not drawn) [Example 38, 3-(4-amino-phenyl)-7-chloro-3-methyl-1H-quinoline-2,4-dione] | 16.5% | 155 to 156 °C | 51.9% | 31.5% | 5.8% | 17.4% | 20.7% | 0.585 µM | 74.1% | 16.8% | 44.3% | – | –
CN(C)c1ccc(C2(C)C(=O)Nc3cc(Cl)cc(Cl)c3C2=O)cc1 (stereo not drawn) [Example 40, 5,7-dichloro-3-(4-dimethylamino-phenyl)-3-methyl-1H-quinoline-2,4-dione] | 10.5% | 268 to 269 °C | 50.2% | 42.2% | 0% | 30.3% | 6.5% | 0.563 µM | 67.2% | 4.5% | 40.8% | – | –
CCN(CC)c1ccc(C2(C)C(=O)Nc3cc(Cl)cc(Cl)c3C2=O)cc1 (stereo not drawn) [Example 42, 5,7-dichloro-3-(4-diethylamino-phenyl)-3-methyl-1H-quinoline-2,4-dione] | 15.7% | 247 to 249 °C | 6.5% | 16.9% | 8.5% | 10.1% | 13.7% | 0.015 µM | 69.5% | 25.3% | 38.7% | – | almost same affinities as or better affinities than known selective antagonists
COc1ccc(C2(C)C(=O)Nc3cc(N4CCN(C)CC4)cc(Cl)c3C2=O)cc1 (stereo not drawn) [Example 46, 5-chloro-3-(4-methoxy-phenyl)-3-methyl-7-(4-methyl-piperazine-1-yl)-1H-quinoline-2,4-dione] | 30.4% | 201 to 202 °C | 25.4% | 16.5% | 7.2% | 17.8% | 10.7% | 1.46 µM | 67.1% | 16.7% | 16% | – | –
CN1CCN(c2ccc3c(c2)NC(=O)C(C)(c2ccc(N)cc2)C3=O)CC1 (stereo not drawn) [Example 50, 3-(4-amino-phenyl)-3-methyl-7-(4-methyl-piperazine-1-yl)-1H-quinoline-2,4-dione] | 8.2% | 265 to 267 °C | 6.7% | 21.5% | 0% | 20.5% | 15.4% | 0.942 µM | 74.5% | 50.1% | 34.1% | – | –
